{
  "source": "patent US20140357512A1",
  "about": "“HISTONE DEACETYLASE (HDAC) BIOMARKERS IN MULTIPLE MYELOMA” (priority 2013, published 2014)",
  "tested_on": "human myeloma cell line MM.1S",
  "experiment": "SILAC acetylated-lysine peptide profiling, HDAC inhibitor vs DMSO (light/heavy ratio)",
  "format": "cell-based",
  "from_the_text": "An embodiment of the invention comprises utilizing the SILAC method in order to quantitate changes in protein expression between two or more populations of cells. The SILAC method is a technique based on mass spectrometry that detects differences in protein abundance among samples using non-radioactive isotopic labeling. The SILAC method is known in the art, and described in detail in Ong et al., “Stable Isotope Labeling by Amino Acids in Cell Culture, SILAC, as a Simple and Accurate Approach to Expression Proteomics”, Molecular & Cellular Proteomics, vol. 1, pp. 376-386 (2002), which is incorporated herein by reference in its entirety.\nBriefly, the SILAC method involves growing two populations of cells in cell culture. The first population of cells is grown in growth media containing normal amino acids (“normal media”). The second population of cells is grown in media lacking a standard essential amino acid (such as lysine), but is then supplemented with a non-radioactive, isotopically labeled form of that essential amino acid (such as lysine labeled with ^13C atoms, rather than normal ^12C atoms), which is called “heavy media”. When the two populations of cells are each growing in the medium, they incorporate the amino acids into all of their proteins. The growth of cells maintained in the heavy media is no different from that in normal media. All peptides containing the heavy amino acids are heavier than their normal counterparts. The cells from each of the two populations of cells are lysed. The lysates from each of the two cell populations are then combined. The combined cell lysates are then analyzed by mass spectrometry. Pairs of chemically identical peptides of different stable isotope composition can be differentiated in a mass spectrometer due to their difference in mass. The ratio of peak intensities in the mass spectrum for such peptide pairs reflects the abundance ratio for the two proteins.\nThis example describes SILAC studies that were performed to compare the effects of three different HDAC inhibitors (Compound A, Compound B, and tubastatin A) to a control on a human multiple myeloma cell line. The HDAC inhibitors were also compared amongst themselves to determine differences in their effects.\nA human myeloma cell line MM.1S was grown using either ^12C (light) or ^13C (heavy) lysine containing culture medium. The “heavy” cells were treated with DMSO as the control, and the “light” cells were treated with a single HDAC inhibitor at 37° C. for 6 hours. The heavy and light cells were lysed, and the lysates were mixed in 1:1 ratio and digested with the protease trypsin. The acetylated lysine containing peptides (due to the action of the HDAC inhibitor) in the digested peptide pool were captured by a non-specific anti-acetylated lysine antibody cocktail (the antibodies identify both light and heavy acetylated peptides), and subjected to mass spectrometry analysis in order to identify thousands of individual peptides.\nThousands of peptides were identified in pairs (^12C and ^13C) due to their known mass differences. The amino acid sequence and quantitative ratio (Light/Heavy) of a given peptide in two differentially treated cell lysates were then determined and annotated with their possible protein (gene) sources.\nAs stated above, three HDAC inhibitors (Compound A, Compound B, and Tubastatin A) were used. Thus, the SILAC method was performed three times, with a different HDAC inhibitor compared to a control each time. Accordingly, there are three pairs of quantitative data in the table below, i.e., Compound A:DMSO, Compound B:DMSO, and Tubastatin A:DMSO. A cut-off of 1.30 fold of change (increase or decrease) was then used to determine “changed” or “+” in the table, and any peptides with a fold of change less than 1.3 fold were determined to be “unchanged” or “0” in the table. Those peptides that were not identified were marked as “NA” in the table. […]",
  "data": [
    {"compound": "O=C(CCCCCCNC(=O)c1cnc(N(c2ccccc2)c2ccccc2)nc1)NO", "note": "[Compound A, 2-(diphenylamino)-N-(7-(hydroxyamino)-7-oxoheptyl)pyrimidine-5-carboxamide]", "values": [
      {"measurement": "L/H ratio of acetylated peptide DWVLNEFK(ac)HGK (SEQ ID NO: 33)", "setting": "DDX5 [388], log 2 scale, drug vs DMSO", "value": 0.00},
      {"measurement": "L/H ratio of acetylated peptide FEK(ac)[…] (SEQ ID NO: 32)", "setting": "DDX17 [132], log 2 scale, drug vs DMSO", "value": 0.00},
      {"measurement": "L/H ratio of acetylated peptide ELNK(ac)ILEGR (SEQ ID NO: 2)", "setting": "DLAT [466], log 2 scale, drug vs DMSO", "value": 0.00},
      {"measurement": "light to heavy ratio (L/H ratio) of acetylated peptide SQFLK(ac)YIEK (SEQ ID NO: 524)", "setting": "DNA replication licensing factor MCM2 [534], gene MCM2, inhibitor:DMSO", "value": "−0.46", "unit": "log 2"},
      {"measurement": "light to heavy ratio (L/H ratio) of acetylated peptide TFEK(ac)SMMNLQTK (SEQ ID NO: 354)", "setting": "DNA topoisomerase 1 [642], TOP1, drug:DMSO", "value": 0.00, "unit": "log 2"},
      {"measurement": "L/H ratio of acetylated peptide VVK(ac)HPIFER (SEQ ID NO: 35)", "setting": "DNAJB11 [247], log 2 scale, drug vs DMSO", "value": 0.00},
      {"measurement": "L/H ratio of acetylated peptide", "setting": "DVTLQK(ac)QCVPFR (SEQ ID NO: 486), 60S ribosomal protein L17 [55], RPL17", "value": 0.71, "unit": "log 2"},
      {"measurement": "light to heavy ratio (L/H ratio) of acetylated peptide LNLDK(ac)MMEQK (SEQ ID NO: 603)", "setting": "Dihydrolipoyl dehydrogenase mitochondrial [122], gene DLD, inhibitor:DMSO", "value": 0.46, "unit": "log 2"},
      {"measurement": "light to heavy ratio (L/H ratio) of acetylated peptide DTYIENEK(ac)LISGK (SEQ ID NO: 352)", "setting": "Dolichyl-diphosphooligosaccharide--protein glycosyltransferase subunit 1 precursor [626], RPN1, drug:DMSO", "value": 0.00, "unit": "log 2"},
      {"measurement": "light to heavy ratio (L/H ratio) of acetylated peptide YNIEK(ac)DIAAHIK (SEQ ID NO: 553)", "setting": "Dynein light chain 1 cytoplasmic [36], gene DYNLL1, inhibitor:DMSO", "value": 0.40, "unit": "log 2"},
      {"measurement": "light to heavy ratio (L/H ratio) of acetylated peptide YNIEK(ac)DIAAYIK (SEQ ID NO: 331)", "setting": "Dynein light chain 2 cytoplasmic [36], DYNLL2, drug:DMSO", "value": 0.00, "unit": "log 2"},
      {"measurement": "L/H ratio of acetylated peptide", "setting": "EHLLK(ac)YEYQPFAGK (SEQ ID NO: 482), Isoform 1 of WD repeat-containing protein 1 [95], WDR1", "value": 0.47, "unit": "log 2"},
      {"measurement": "L/H ratio of acetylated peptide TSK(ac)NK(ac)SSLSR (SEQ ID NO: 14)", "setting": "EP300 [1558:1560], log 2 scale, drug vs DMSO", "value": 1.00},
      {"measurement": "light to heavy ratio (L/H ratio) of acetylated peptide YLAEK(ac)YEWDVAEAR (SEQ ID NO: 332)", "setting": "Elongation factor 2 [638], EEF2, drug:DMSO", "value": 0.00, "unit": "log 2"},
      {"measurement": "light to heavy ratio (L/H ratio) of acetylated peptide TFK(ac)GVVDVVMK (SEQ ID NO: 550)", "setting": "Elongation factor G 2 mitochondrial precursor [265], gene GFM2, inhibitor:DMSO", "value": 0.39, "unit": "log 2"},
      {"measurement": "light to heavy ratio (L/H ratio) of acetylated peptide KSDYIK(ac)LYVR (SEQ ID NO: 315)", "setting": "Endoplasmin [410], HSP90B1, drug:DMSO", "value": 1.00, "unit": "log 2"},
      {"measurement": "light to heavy ratio (L/H ratio) of acetylated peptide EK(ac)[…] (SEQ ID NO: 314)", "setting": "Endoplasmin[ 142], HSP90B1, drug:DMSO", "value": 1.00, "unit": "log 2"},
      {"measurement": "light to heavy ratio (L/H ratio) of acetylated peptide EVEEDEYK(ac)AFYK (SEQ ID NO: 261)", "setting": "Endoplasmin[ 356], HSP90B1, drug:DMSO", "value": 0.41, "unit": "log 2"},
      {"measurement": "light to heavy ratio (L/H ratio) of acetylated peptide K(ac)EELTLEGIR (SEQ ID NO: 510)", "setting": "Eukaryotic initiation factor 4A-I [238], gene EIF4A1, inhibitor:DMSO", "value": "−0.60", "unit": "log 2"},
      {"measurement": "light to heavy ratio (L/H ratio) of acetylated peptide LMCK(ac)PIFSK (SEQ ID NO: 335)", "setting": "Eukaryotic translation initiation factor 2 subunit 3 [312], EIF2S3, drug:DMSO", "value": 0.00, "unit": "log 2"},
      {"measurement": "light to heavy ratio (L/H ratio) of acetylated peptide SHLAK(ac)EGLYQYK (SEQ ID NO: 533)", "setting": "Eukaryotic translation initiation factor 3 subunit A [68], gene EIF3A, inhibitor:DMSO", "value": "−0.41", "unit": "log 2"},
      {"measurement": "L/H ratio of acetylated peptide", "setting": "FGIAAK(ac)[…] (SEQ ID NO: 479), Isoform 2 of Voltage-dependent anion-selective channel protein 2 [224], VDAC2", "value": "−0.40", "unit": "log 2"},
      {"measurement": "light to heavy ratio (L/H ratio) of acetylated peptide, log 2 scale", "setting": "FPHSAHQK(ac)YVR (SEQ ID NO: 253), Ribosomal protein L14 variant [71], RPL14", "value": "−0.39"},
      {"measurement": "L/H ratio of acetylated peptide", "setting": "FVATGHGK(ac)YEK (SEQ ID NO: 487), Lymphocyte-specific protein 1 [327], LOC100133284, LSP1", "value": 0.75, "unit": "log 2"},
      {"measurement": "light to heavy ratio (L/H ratio) of acetylated peptide AVDLIQK(ac)HK (SEQ ID NO: 546)", "setting": "Flap endonuclease 1 [252], gene FEN1, inhibitor:DMSO", "value": 0.39, "unit": "log 2"},
      {"measurement": "light to heavy ratio (L/H ratio), log 2 scale, acetylated peptide GGVVGIK(ac)VDK (SEQ ID NO: 774)", "setting": "Fructose-bisphosphate aldolase A [108], gene ALDOA, drug:DMSO", "value": 1.00},
      {"measurement": "L/H ratio of acetylated peptide TCEESSFCK(ac)R (SEQ ID NO: 36)", "setting": "GANAB [48], log 2 scale, drug vs DMSO", "value": 0.00},
      {"measurement": "L/H ratio of acetylated peptide ASGLAAGK(ac)GVIVAK (SEQ ID NO: 37)", "setting": "GART [156], log 2 scale, drug vs DMSO", "value": 0.00},
      {"measurement": "L/H ratio of acetylated peptide LVK(ac)VWNLANCK (SEQ ID NO: 39)", "setting": "GNB2L1 [175], log 2 scale, drug vs DMSO", "value": 0.00},
      {"measurement": "L/H ratio of acetylated peptide IIVDELK(ac)QEVISTSSK (SEQ ID NO: 38)", "setting": "GNB2L1 [271], log 2 scale, drug vs DMSO", "value": 0.00},
      {"measurement": "L/H ratio of acetylated peptide", "setting": "GSK(ac)K(ac)AVTK (SEQ ID NO: 490), Histone H2B type 2-E [16:17], HIST2H2BE", "value": 1.00, "unit": "log 2"},
      {"measurement": "L/H ratio of acetylated peptide (ac)AHYNFK(ac)K (SEQ ID NO: 40)", "setting": "GTPBP4 [7], log 2 scale, drug vs DMSO", "value": 0.00},
      {"measurement": "L/H ratio of acetylated peptide", "setting": "GVHPK(ac)FPEGGK (SEQ ID NO: 483), NADH-cytochrome b5 reductase 1 [124], CYB5R1", "value": 0.48, "unit": "log 2"},
      {"measurement": "light to heavy ratio (L/H ratio) of acetylated peptide (ac)[…](ac)PGECLR (SEQ ID NO: 575)", "setting": "Galectin-1 [13], gene LGALS1, inhibitor:DMSO", "value": 0.42, "unit": "log 2"},
      {"measurement": "light to heavy ratio (L/H ratio) of acetylated peptide ISGASEK(ac)[…] (SEQ ID NO: 543)", "setting": "Glutamate dehydrogenase 1 mitochondrial [503], gene GLUD1, inhibitor:DMSO", "value": 0.39, "unit": "log 2"},
      {"measurement": "light to heavy ratio (L/H ratio) of acetylated peptide […](ac)YDNSLK (SEQ ID NO: 620)", "setting": "Glyceraldehyde-3-phosphate dehydrogenase [139], gene GAPDH, inhibitor:DMSO", "value": 0.48, "unit": "log 2"}
    ]}
  ]
}
